Results taken from patent US7417056B2, “5-substituted quinoline and isoquinoline derivatives, a process for their production and their use as anti-inflammatory agents” (Schering AG, priority 2004, dated 2008).

Tests used:
[1] = test system: secretion of the cytokine IL-8, induced by lipopolysaccharide (LPS), in the human monocyte cell line THP-1; assay: Inhibition of LPS-induced IL-8 secretion in THP-1 cells (ELISA); type: cell-based; details: efficiency of dexamethasone = 100%
Description: The concentration of the cytokines was determined in the supernatant by means of commercially available ELISA kits.

[2] = test system: tyrosine aminotransferase (TAT); assay: Induction of tyrosine aminotransferase (TAT) in rat hepatoma cells; type: cell-based; details: for efficiency, induction of TAT: 24 hours, efficiency of dexamethasone = 100%; for EC50: treated for 24 hours
Text: One of the most frequent undesirable actions of a glucocorticoid therapy is the so-called “steroid diabetes” [cf. Hatz, H. J., Glucocorticoide: Immunologische Grundlagen, Pharmakologie und Therapierichtlinien [Glucocorticoids: Immunological Principles, Pharmacology and Therapy Guidelines], Wissenschaftliche Verlagsgesellschaft mbH, Stuttgart, 1998]. The reason for this is the stimulation of gluconeogenesis in the liver by induction of the enzymes that are responsible for this and by free amino acids that are produced from the degradation of proteins (catabolic action of glucocorticoids). A key enzyme of the catabolic metabolism in the liver is the tyrosine aminotransferase (TAT). The activity of this enzyme can be determined photometrically from cell cultures of treated rat hepatoma cells. The cells are treated for 24 hours with the test substances, and then the TAT activity is measured.

[3] = Skin atrophy in rats (skin fold thickness measurement); type: in vivo; details: local, daily for 18 days
Description: Another undesirable action that occurs especially after local therapy is the induction of a skin atrophy, which leads to the skin's loss of thickness, elasticity, and ultimately the mechanical resistance of the skin. The potential of a substance to induce skin atrophy can be determined in rats. The animals are treated for 18 days daily and locally in equieffective dosages with the test substances. By means of a skin fold thickness measurement, the reduction of the skin thickness over the treatment time can be tracked.

| Compound | EC50 [2] [nM] | reduction of the skin thickness ([3]; concentration 0.01% (maximum anti-inflammatory action is achieved)) [%] | reduction of the skin thickness ([3]; concentration 0.1% (maximum anti-inflammatory action is achieved)) [%] | efficiency, inhibition of IL-8 secretion [1] [%] | efficiency, induction of TAT [2] [%] |
| --- | --- | --- | --- | --- | --- |
| C[C@]12C=CC(=O)C=C1CC[C@@H]1[C@@H]2[C@@H](O)C[C@@]2(C)[C@H]1CC[C@]2(O)C(=O)CO [prednisolone, reference compound] |  |  |  | 96 |  |
| CCC(=O)O[C@]1(C(=O)CCl)[C@@H](C)C[C@H]2[C@@H]3CCC4=CC(=O)C=C[C@]4(C)[C@@]3(F)[C@@H](O)C[C@@]21C [clobetasol propionate, reference compound] |  | 65 |  |  |  |

Further lines, with some results ahead:

| EC50 [2] [nM] | reduction of the skin thickness ([3]; concentration 0.01% (maximum anti-inflammatory action is achieved)) [%] | reduction of the skin thickness ([3]; concentration 0.1% (maximum anti-inflammatory action is achieved)) [%] | Compound | efficiency, inhibition of IL-8 secretion [1] [%] | efficiency, induction of TAT [2] [%] |
| --- | --- | --- | --- | --- | --- |
| 4 |  |  | Cn1ccc2c(NCC(O)(CC(C)(C)c3cc(F)cc4c3OCC4)C(F)(F)F)cccc2c1=O (centres unmarked) [Example 11, 5-[4-(5-Fluoro-2,3-dihydrobenzofuran-7-yl)-2-hydroxy-4-methyl-2-trifluoromethyl-pentylamino]-2-methylisoquinol-1(2H)-one] | 61 | 86 |
| 10 |  |  | Cc1ccc2c(NCC(O)(CC(C)(C)c3cc(F)cc4c3OCC4)C(F)(F)F)ccc(F)c2n1 (centres unmarked) [Example 10, 8-Fluoro-5-[4-(5-Fluoro-2,3-dihydrobenzofuran-7-yl)-2-hydroxy-4-methyl-2-trifluoromethyl-pentylamino]-2-methylquinoline] | 86 | 92 |
|  |  | 41 | Cc1ccc2c(NCC(O)(CC(C)(C)c3cc(F)cc4c3OCC4)C(F)(F)F)cccc2n1 (centres unmarked) [Example 1, 5-[4-(5-Fluoro-2,3-dihydrobenzofuran-7-yl)-2-hydroxy-4-methyl-2-trifluoromethyl-pentylamino]-2-methylquinoline] | 74 | 93 |
